The subject of series [1] is H596 (mitomycin-resistant, lacks DT-Diaphorase) non small cell lung cancer (NSCLC) cell line. Nature of the series: Cytotoxic activity, H596 cell line. The format is cell-based. Conditions: Homo sapiens, NCI-H596, read-out: IC50 (nM) H596. Here is the method: (§1) The O-amino phenol derivatives bearing the N—O prodrug linkages and the various N-acyl substituents were assayed for cytotoxic activity alongside the parent drugs CBI-TMI (2) (Boger, D. L.; Yun, W. J. Am. Chem. Soc. 1994, 116, 7996) and mitomycin C (Boger, D. L.; et al. Bioorg. Med. Chem. Lett. 1991, 1, 115; Boger, D. L.; et al. Bioorg. Med. Chem. 1995, 3, 1429) as well as the two control standards 9 and 10 incapable of free phenol release. Three cell lines were examined including a standard L1210 cell line (mouse leukemia) as well as the mitomycin-sensitive (H460, expresses high levels of DT-Diaphorase) and resistant (H596, lacks DT-Diaphorase) non small cell lung cancer (NSCLC) cell lines, with results shown in the Table below.

The test system of series [2] is L1210 cell line (mouse leukemia). Put plainly: Cytotoxic activity, L1210 cell line. The format is cell-based. Here is the method:
as §1

Series [3] deals with w794 duplex DNA. Put plainly: DNA alkylation selectivity and efficiency (thermally-induced strand cleavage). The class given is biochemical. Here is the method:
FIG. 1 illustrates the results of an electrophoresis gel with 8% denaturing PAGE and autoradiography. Thermally-induced strand cleavage of w794 DNA; DNA-agent incubation at 4° C. for 18 hours, removal of unbound agent by EtOH precipitation, and 30 minutes of thermolysis (100° C.) followed by 8% denaturing PAGE and autoradiography. Lane 1, control DNA; lanes 2-5, Sanger G, C, A, and T sequencing reactions; lanes 6-8, 2 (1×10^−4 to 1×10^−6); lanes 9-11, 10 (1×10^−1 to 1×10^−3); lanes 12-14, 4 (1×10^−1 to 1×10^−3), lanes 15-17, 9 (1×10^−1 to 1×10^−3).
The DNA alkylation properties of 4 were examined alongside the parent drug CBI-TMI (2), and the two control standards 9 and 10 (incapable of spirocyclization) within w794 duplex DNA (Boger, D. L.; et al. Tetrahedron 1991, 47, 2661) for which results for an extensive series of duocarmycin analogues have been reported. The sites of DNA alkylation and its efficiency were directly assessed by thermally-induced singly 5′ end-labeled duplex DNA strand cleavage following incubation with the agents ([…], natural enantiomers examined).
The DNA alkylation reactions were performed by treatment of 4.5 μL of singly ^32P 5′-end-labeled double-stranded w794 DNA (Boger, D. L.; et al. Tetrahedron 1991, 47, 2661) in TE buffer (10 mM Tris, 1 mM EDTA, pH 7.6) with 0.5 μL of agent in EtOH (at the specified concentration). […] Unbound agent was removed by EtOH precipitation of DNA (0.5 μL of 3.0 M sodium acetate and 12.5 μL of cold absolute EtOH) and the solutions were stored at −78° C. for 1 hour or longer. The DNA was pelleted by centrifugation at 4° C. (13000 rpm, 25 minutes), dried in a Savant Speed Vac concentrator, and resuspended in 5 μL of TE buffer (pH 7.6). Thermal depurination (3×10 minutes at 100° C.) was performed and then 2.5 μL of formamide dye solution was added to the cooled samples. Thermally denatured samples were assayed by gel electrophoresis [8% denaturing gel with 8 M urea in TBE buffer (89 mM Tris-borate, 2 mM EDTA)] followed by autoradiography of the dried gel using Kodak BIOMAX XAR film and a Picker Spectra™ intensifying screen.

For series [4], the system named is H460 (mitomycin-sensitive, expresses high levels of DT-Diaphorase) non small cell lung cancer (NSCLC) cell line. Nature of the series: Cytotoxic activity, H460 cell line. The format is cell-based. Conditions: for IC50: Homo sapiens, NCI-H460, read-out: IC50 (nM) H460. Here is the method: as §1
Series [5] is described as follows: Chemical stability and reactivity of the N-acyl O-amino phenol derivatives. The format is physicochemical.
A short description of series [6]: Stability in pH 7.0 phosphate buffer. Conditions: HPLC, UV; monitored 72 hours. The format is physicochemical.
The nature of series [7]: Stability in human plasma. The class given is in vitro ADME. Conditions: 50 μg/100 μL, 10% DMSO, release of free drug 2.
Where [8] appears, read: Mus musculus, L1210, read-out: IC50 (nM) L1210, natural enantiomer series, CBI-TMI derivatives.

Each structure is given as a SMILES string. Like-named read-outs stand apart in the source and are kept apart here. Some results are limits rather than exact numbers.

As to `COc1cc2cc(C(=O)N3C[C@@H](CCl)c4c3ccc3ccccc43)[nH]c2c(OC)c1OC` [Compound 9], the half-maximal inhibitory concentration (IC50) in series [1], in series [2] (setting [8]) and in series [4] was > 100 nM in each case. The “DNA alkylation under forcing conditions” value in series [3] (37° C., 18 hours, data not shown) is reported as “no appreciable DNA alkylation”. For the same compound, the “observable DNA alkylation” value in series [3] (w794 DNA, 4° C., 18 hours) is reported as “failed to exhibit significant observable DNA alkylation”.
As for `COc1cc2cc(C(=O)N3C[C@@H](CCl)c4c3cc(ONC(=O)OC(C)(C)C)c3ccccc43)[nH]c2c(OC)c1OC` [Compound 4], the figures for the half-maximal inhibitory concentration (IC50) in series [1], in series [2] (setting [8]) and in series [4] were 6 nM, 0.5 nM and 1 nM, respectively. Also, in series [5] (BnSH in MeOH, NaHCO3, 2 hours, 23° C.), the “stability to treatment with BnSH in MeOH with NaHCO3” value is “cleaved to release 2”. Besides, the “stability to treatment with BnSH” value in series [5] (BnSH in THF (2-72 hours, 23° C.) or MeOH (2-72 hours, 23° C.)) was “stable”. In series [5] (BnSH in THF, insoluble NaHCO3, 2 hours, 23° C.), the “stability to treatment with BnSH in THF with insoluble NaHCO3” value is on record as “stable”. Further, the “stability in MeOH” value in series [5] (MeOH) was “stable”. For the same compound, the “stability to NaHCO3 or Na2CO3 in MeOH” value in series [5] (NaHCO3 or Na2CO3 in MeOH, 2 hours, 23° C.) was found to be 2 was released slowly. In series [5] (TFA-CH2Cl2, 4 N HCl-EtOAc), the “stability to acidic conditions” value is on record as “surprisingly robust to acidic conditions”. Moreover, in series [5] (storage), the “stability on long term storage” value is on record as “withstanding even long term storage effectively”. Further, the “fold less potent than 2” value in series [2] (against L1210, natural enantiomer) came to 10 fold. Also, the “DNA alkylation efficiency, reduction relative to CBI-TMI (2)” value in series [3] (w794 DNA, 4° C., 18 hours, natural enantiomers) was 1,000-10,000 fold. Further, the “DNA alkylation sequence selectivity” value in series [3] (w794 DNA, compared with CBI-TMI (2)) is listed as “identical sequence selectivity”. In series [4] (against H460/H596), the “potency compared with 2” value is on record as “essentially equipotent”. Further, the “stability in pH 7.0 phosphate buffer” value in series [6] is recorded as “no significant cleavage of the prodrug was observed”. In series [7], this compound showed a half-life of 3 h.
Regarding `COc1cc2cc(C(=O)N3C[C@@H](CCl)c4c3cc(OC)c3ccccc43)[nH]c2c(OC)c1OC` [Compound 10], the half-maximal inhibitory concentration (IC50) in series [1] was > 100 nM; in series [2] (setting [8]) it was > 100 nM; in series [2] (read-out: IC50 (nM) L1210, natural enantiomer series, CBI-TMI derivatives), 50 nM; in series [4], > 100 nM. For the same compound, in series [3] (w794 DNA, 4° C., 18 hours), the “observable DNA alkylation” value was “failed to exhibit significant observable DNA alkylation”. In addition, the “DNA alkylation relative to that of 2” value in series [3] (w794 DNA, natural enantiomers) is < 0.01%.

A word on the IC50: it is the concentration at which inhibition is half-maximal. By half-life is commonly meant the time needed for the level to fall by half in the phase considered. Low values mean fast loss, high ones slow loss.

(Values after patent publication US8377981B2, “CBI derivatives subject to reductive activation” (The Scripps Research Institute, priority 2007, dated 2013).)
